Laboratory results from patent publication US20040142981A1, “Antibacterial benzoic acid derivatives” (priority 2002, published 2004).
Values after ≈ are worked out from the molar mass of the structure shown.

Key:
SAUR 9218 = assay: MIC by standard agar dilution method; format: cell-based; conditions: Mueller Hinton agar, incubated overnight at 35° C., lowest concentration that inhibits visible growth
Protocol: MIC Test Method The in vitro MICs of test compounds were determined by a standard agar dilution method. A stock drug solution of each analog was prepared in the preferred solvent, usually DMSO:H2O (1:3). Serial 2-fold dilutions of each sample are made using 1.0 ml aliquots of sterile distilled water. To each 1.0 ml aliquot of drug was added 9 ml of molten Mueller Hinton agar medium. The drug-supplemented agar was mixed, poured into 15×100 mm petri dishes, and allowed to solidify and dry prior to inoculation. Vials of each of the test organisms are maintained frozen in the vapor phase of a liquid nitrogen freezer. Test cultures are grown overnight at 35° C. on the medium appropriate for the organism. Colonies are harvested with a sterile swab, and cell suspensions are prepared in Trypticase Soy broth (TSB) to equal the turbidity of a 0.5 McFarland standard. A 1:20 dilution of each suspension was made in TSB. The plates containing the drug supplemented agar are inoculated with a 0.001 ml drop of the cell suspension using a Steers replicator, yielding approximately 10^4 to 10^5 cells per spot. The plates are incubated overnight at 35° C. Following incubation the Minimum Inhibitory Concentration (MIC μg/ml), the lowest concentration of drug that inhibits visible growth of the organism, was read and recorded.

Row | MIC (SAUR 9218) [µg/mL] | melting point [°C] | Compound
1 | 64 (≈ 95.2 µM) | – | O=C(Nc1ccc(Br)cc1C1=Nc2ccccc2S(=O)(=O)N1)c1cccc(S(=O)(=O)N2CCc3cc(Cl)ccc32)c1 [Example 14, N-[4-Bromo-2-(1,1-dioxido-2H-1,2,4-benzothiadiazin-3-yl)phenyl]-3-[(5-chloro-2,3-dihydro-1H-indol-1-yl)sulfonyl]benzamide]
2 | 32 (≈ 76.5 µM) | – | CC(C)Oc1cccc(C(=O)Nc2ccc(Br)cc2-c2noc(=O)[nH]2)c1 [Example 15, N-[4-Bromo-2-(5-oxo-4,5-dihydro-1,2,4-oxadiazol-3-yl)phenyl]-3-isopropoxybenzamide]
3 | 16 (≈ 35.4 µM) | 185 to 187 | O=C(Nc1ccc(Br)cc1-c1noc(=O)[nH]1)c1cccc(Oc2ccccc2)c1 [Example 16, N-[4-Bromo-2-(5-oxo-4,5-dihydro-1,2,4-oxadiazol-3-yl)phenyl]-3-phenoxybenzamide]
4 | 64 (≈ 130 µM) | 228 to 230 | O=C(Nc1ccc(Br)cc1-c1nnn[nH]1)c1cccc(S(=O)(=O)N2CCOCC2)c1 [Example 17, N-[4-bromo-2-(1H-tetraazol-5-yl)phenyl]-3-(morpholin-4-ylsulfonyl)benzamide]
5 | > 128 | 283 to 285 | N#Cc1ccc(NC(=O)c2cccc(S(=O)(=O)N3CCOCC3)c2)c(-c2n[nH]c(=O)o2)c1 [Example 18, N-[4-cyano-2-(5-oxo-4,5-dihydro-1,3,4-oxadiazol-2-yl)phenyl]-3-(morpholin-4-ylsulfonyl)benzamide]
6 | 128 (≈ 251 µM) | 220 to 223 | O=C(Nc1ccc(Br)cc1-c1noc(=O)[nH]1)c1cccc(S(=O)(=O)N2CCOCC2)c1 [Example 19, N-[4-bromo-2-(5-oxo-4,5-dihydro-1,2,4-oxadiazol-3-yl)phenyl]-3-(morpholin-4-ylsulfonyl)benzamide]
7 | 64 (≈ 146 µM) | 230 to 232 | N#Cc1ccc(NC(=O)c2cccc(S(=O)(=O)N3CCOCC3)c2)c(-c2nnn[nH]2)c1 [Example 20, N-[4-cyano-2-(1H-tetraazol-5-yl)phenyl]-3-(morpholin-4-ylsulfonyl)benzamide]
8 | > 64 | 210 to 212 | CC(C)(C)C(=O)OCn1nnc(-c2cc(Br)ccc2NC(=O)c2cccc(S(=O)(=O)N3CCOCC3)c2)n1 [Example 21, [5-(5-bromo-2-{[3-(morpholin-4-ylsulfonyl)benzoyl]amino}phenyl)-2H-tetraazol-2-yl]methyl pivalate]
9 | 32 (≈ 61.3 µM) | 262 to 264 | N#Cc1ccc(NC(=O)c2ccc(S(=O)(=O)N3CCc4cc(Cl)ccc43)cc2)c(-c2n[nH]c(=O)o2)c1 [Example 22, 4-[(5-chloro-2,3-dihydro-1H-indol-1-yl)sulfonyl]-N-[4-cyano-2-(5-oxo-4,5-dihydro-1,3,4-oxadiazol-2-yl)phenyl]benzamide]
10 | 8 (≈ 14.9 µM) | 225 to 229 | N#Cc1ccc(NC(=O)c2ccc(S(=O)(=O)N3CCc4cc(Cl)ccc43)cc2)c(-c2n[nH]c(=S)o2)c1 [Example 23, 4-[(5-chloro-2,3-dihydro-1H-indol-1-yl)sulfonyl]-N-[4-cyano-2-(5-thioxo-4,5-dihydro-1,3,4-oxadiazol-2-yl)phenyl]benzamide]
11 | 0.5 (≈ 0.877 µM) | – | O=C(Nc1ccc(I)cc1-c1nnn[nH]1)c1cc2cccc(S(=O)(=O)c3ccccc3)c2[nH]1 [Example 24, N-[4-iodo-2-(1H-tetraazol-5-yl)phenyl]-7-(phenylsulfonyl)-1H-indole-2-carboxamide]
12 | 0.125 (≈ 0.266 µM) | 293 to 295 | N#Cc1ccc(NC(=O)c2cc3cccc(S(=O)(=O)c4ccccc4)c3[nH]2)c(-c2nnn[nH]2)c1 [Example 25, N-[4-cyano-2-(1H-tetraazol-5-yl)phenyl]-7-(phenylsulfonyl)-1H-indole-2-carboxamide]
13 | 8 (≈ 14.2 µM) | – | N#Cc1ccc(NC(=O)c2cccc(S(=O)(=O)N3CCc4cc(Cl)ccc43)c2)c(C(=O)Nc2nccs2)c1 [Example 26, 2-({3-[(5-Chloro-2,3-dihydro-1H-indol-1-yl)sulfonyl]benzoyl}amino)-5-cyano-N-(1,3-thiazol-2-yl)benzamide]
14 | 16 (≈ 29.8 µM) | – | CN(c1ccc(Cl)cc1)S(=O)(=O)c1coc(C(=O)Nc2ccc(Br)cc2-c2nnn[nH]2)c1 [Example 27]
15 | 16 (≈ 28.9 µM) | – | CN(c1ccc(Cl)cc1)S(=O)(=O)c1csc(C(=O)Nc2ccc(Br)cc2-c2nnn[nH]2)c1 [Example 28, N-[4-Bromo-2-(1H-tetraazol-5-yl)phenyl]-4-{[(4-chlorophenyl)(methyl)amino]sulfonyl}thiophene-2-carboxamide]
16 | 8 (≈ 14.4 µM) | – | CN(c1ccc(Cl)cc1)S(=O)(=O)c1ccc(C(=O)Nc2ccc(Br)cc2-c2nnn[nH]2)s1 [Example 29, N-[4-Bromo-2-(1H-tetraazol-5-yl)phenyl]-5-{[(4-chlorophenyl)(methyl)amino]sulfonyl}thiophene-2-carboxamide]
17 | 8 (≈ 18.4 µM) | – | CC(C)Sc1ccc(C(=O)Nc2ccc(Br)cc2-c2noc(=O)[nH]2)cn1 [Example 31, N-[4-bromo-2-(5-oxo-4,5-dihydro-1,2,4-oxadiazol-3-yl)phenyl]-6-(isopropylthio)nicotinamide]
18 | 2 (≈ 3.81 µM) | – | O=C(Nc1ccc(Br)cc1-c1nnn[nH]1)c1ccc(S(=O)(=O)N2CCc3ccccc32)cc1 [N-[4-bromo-2-(1H-1,2,3,4-tetraazol-5-yl)phenyl]-4-(2,3-dihydro-1H-indol-1-ylsulfonyl)benzamide]
19 | 4 (≈ 7.14 µM) | – | O=C(Nc1ccc(Br)cc1-c1nnn[nH]1)c1ccc(S(=O)(=O)N2CCc3cc(Cl)ccc32)cc1 [N-[4-bromo-2-(1H-1,2,3,4-tetraazol-5-yl)phenyl]-4-[(5-chloro-2,3-dihydro-1H-indol-1-yl)sulfonyl]benzamide]
20 | 64 (≈ 171 µM) | – | COc1cccc(C(=O)Nc2ccc(Br)cc2-c2nnn[nH]2)c1 [N-[4-bromo-2-(1H-tetraazol-5-yl)phenyl]-3-methoxybenzamide]
21 | 8 (≈ 13.9 µM) | – | O=C(Nc1ccc(Br)cc1-c1noc(=O)[nH]1)c1ccc(S(=O)(=O)N2CCc3cc(Cl)ccc32)cc1 [N-[4-bromo-2-(5-oxo-4,5-dihydro-1,2,4-oxadiazol-3-yl)phenyl]-4-[(5-chloro-2,3-dihydro-1H-indol-1-yl)sulfonyl]benzamide]
22 | > 128 | – | O=C(Nc1ccc(Br)cc1-c1n[nH]c(=O)o1)c1ccc(S(=O)(=O)N2CCc3cc(Cl)ccc32)cc1 [N-[4-bromo-2-(5-oxo-4,5-dihydro-1,3,4-oxadiazol-2-yl)phenyl]-4-[(5-chloro-2,3-dihydro-1H-indol-1-yl)sulfonyl]benzamide]
23 | 2 (≈ 3.55 µM) | – | CN(c1ccc(Cl)cc1)S(=O)(=O)c1ccc(C(=O)Nc2ccc(Br)cc2-c2n[nH]c(=O)o2)cc1 [N-[4-bromo-2-(5-oxo-4,5-dihydro-1,3,4-oxadiazol-2-yl)phenyl]-4-{[4-chloro(methyl)anilino]sulfonyl}benzamide]
24 | 16 (≈ 27.6 µM) | – | CN(c1ccc(Cl)cc1)S(=O)(=O)c1ccc(C(=O)Nc2ccc(Br)cc2-c2noc(=S)[nH]2)cc1 [N-[4-bromo-2-(5-thioxo-4,5-dihydro-1,2,4-oxadiazol-3-yl)phenyl]-4-{[4-chloro(methyl)anilino]sulfonyl}benzamide]
